Columns and labels:
[1] = biological target: dimethylarginine dimethylaminohydrolase-1 (DDAH-1) (Homo sapiens, UniProt O94760); test: time-dependent inactivation kinetics in competition with ADMA; type: biochemical; conditions: read-out: Ki
[2] = biological target: T1, human arginase-I (Mn-hArgI) (Homo sapiens, UniProt P05089); test: urea formation assay, IC50 […] with Cheng-Prusoff Ki; type: biochemical
T1 sequence (P05089 1-322): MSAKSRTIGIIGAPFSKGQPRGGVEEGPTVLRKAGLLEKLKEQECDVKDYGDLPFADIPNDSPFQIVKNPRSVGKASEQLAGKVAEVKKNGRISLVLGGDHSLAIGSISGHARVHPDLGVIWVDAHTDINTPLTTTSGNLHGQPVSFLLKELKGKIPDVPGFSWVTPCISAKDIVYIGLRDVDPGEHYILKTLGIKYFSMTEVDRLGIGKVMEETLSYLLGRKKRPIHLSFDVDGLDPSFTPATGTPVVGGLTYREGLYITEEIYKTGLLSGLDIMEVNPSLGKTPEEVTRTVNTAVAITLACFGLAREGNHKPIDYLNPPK

Sequence of dimethylarginine dimethylaminohydrolase-1 (DDAH-1) (O94760 whole entry): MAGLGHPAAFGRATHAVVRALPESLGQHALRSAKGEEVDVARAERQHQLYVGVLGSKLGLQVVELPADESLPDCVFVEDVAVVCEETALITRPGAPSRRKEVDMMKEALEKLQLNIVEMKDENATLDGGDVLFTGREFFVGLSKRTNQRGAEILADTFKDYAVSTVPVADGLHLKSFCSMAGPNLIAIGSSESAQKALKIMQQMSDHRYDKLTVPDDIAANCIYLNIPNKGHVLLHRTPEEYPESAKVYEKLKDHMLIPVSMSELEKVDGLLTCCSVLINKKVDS

In the case of N=C(CCl)NCCC[C@H](N)C(=O)O [Cl-NIO, N^5-(1-imino-2-chloroethyl)-L-ornithine], the KI (inactivation) [1] is reported as 1.3 ± 0.6 µM and the Ki [2] is reported as 3100 µM.
